Drawing on US20200031778A1, “NOVEL 5-SUBSTITUTED IMIDAZOLYLMETHYL DERIVATIVES” (Bayer CropScience Aktiengesellschaft, priority 2016, published 2020), this text covers LogP for 78 molecules.

SMILES strings stand for the structures.

This data set in a line: Log P by HPLC on reversed phase columns (EEC directive 79/831 Annex V.A8; methods [a], [b], [c]). It is filed as physicochemical. As to the method: Measurement of Log P values was performed according to EEC directive 79/831 Annex V.A8 by HPLC (High Performance Liquid Chromatography) on reversed phase columns with the following methods: • ^[a] Log P value is determined by measurement of LC-UV, in an acidic range, with 0.1% formic acid in water and acetonitrile as eluent (linear gradient from 10% acetonitrile to 95% acetonitrile). • ^[b] Log P value is determined by measurement of LC-UV, in a neutral range, with 0.001 molar ammonium acetate solution in water and acetonitrile as eluent (linear gradient from 10% acetonitrile to 95% acetonitrile). • ^[c] Log P value is determined by measurement of LC-UV, in an acidic range, with 0.1% phosphoric acid and acetonitrile as eluent (linear gradient from 10% acetonitrile to 95% acetonitrile).
If more than one Log P value is available within the same method, all the values are given and separated by “+”.
Calibration was done with straight-chain alkan2-ones (with 3 to 16 carbon atoms) with known Log P values (measurement of Log P values using retention times with linear interpolation between successive alkanones). Lambda-max-values were determined using UV-spectra from 200 nm to 400 nm and the peak values of the chromatographic signals.
As for `COc1cc(C(O)(Cn2cncc2C#N)C2(F)CC2)c(F)cc1Cl` (stereo not drawn) [I-508], the LogP is 2.34^[a].

`Cc1ccccc1C(O)(Cn1cncc1C#N)C1(Cl)CC1` (stereo not drawn) [I-278]: the LogP was 1.29^[a].

For `CC(C)(C)C(O)(Cn1cncc1C#N)c1cc(F)c(F)c(Cl)c1` (stereo not drawn) [I-544], the LogP is 3.07^[a].

As for `CC(C)C(O)(Cn1cncc1C#N)c1ccc(Cl)cc1F` (stereo not drawn) [I-417], the LogP was 2.68^[a].

In the case of `N#Cc1cncn1CC(O)(CCc1ccc(OC(F)(F)F)c(F)c1)C1(Cl)CC1` (stereo not drawn) [I-359], the LogP is 3.31^[a].

As for `N#Cc1cncn1CC(O)c1ccc(Oc2ccc(OC(F)(F)F)cc2)nc1C(F)(F)F` (stereo not drawn) [I-137], the LogP is 3.12^[a].

For `N#Cc1cncn1CC(O)(C#Cc1ccc(C(F)(F)F)cc1)C1(Cl)CC1` (stereo not drawn) [I-350], the LogP is 3.09^[a].

With `CC(O)(Cn1cncc1Br)c1ccc(Oc2ccc(I)cc2)cc1Br` (stereo not drawn) [I-186], the LogP was 3.23^[a].

`CCCC#Cc1ccc(C(O)(Cn2cncc2C#N)C2(F)CC2)c(F)c1` (stereo not drawn) [I-645]: the LogP was 3.29^[a].

As for `CC(C)(C)CC(O)(Cn1cncc1C#N)c1ccc(F)cc1` (stereo not drawn) [I-226], the LogP is 2.90^[a].

With `CC(=O)c1cncn1CC(C)(O)c1cnc(Oc2ccc(C(F)(F)F)cc2)cc1Br` (stereo not drawn) [I-252], the LogP was 2.84^[a].

`Cn1ccc2cc(C(O)(Cn3cncc3C#N)CC(C)(C)C)ccc21` (stereo not drawn) [I-377]: the LogP is 2.94^[a].

On to `CCCC(O)(Cn1cncc1C#N)c1ccccc1C(F)(F)F` (stereo not drawn) [I-313], for which the LogP was 2.66^[a].

On to `N#Cc1cncn1CC(O)(c1cc(F)c(F)cc1Br)C1(F)CC1` (stereo not drawn) [I-688], for which the LogP was 2.36^[a].

As for `CC(O)(Cn1cncc1Br)c1ccc(Oc2ccc(Br)cc2)cc1Cl` (stereo not drawn) [1-174], the LogP was 2.96^[a].

As to `N#Cc1cncn1CC(O)(c1ccc(S(F)(F)(F)(F)F)cc1)C1(F)CC1` (stereo not drawn) [I-379], the LogP was 2.78^[a].

On to `N#Cc1cncn1CC(O)(CC1CC1)c1ccc(Cl)c(Br)c1` (stereo not drawn) [I-533], for which the LogP is 2.86^[a].

`CC(=O)c1cncn1CC(C)(O)c1ccc(Oc2ccc(C(F)(F)F)nc2)nc1C(F)(F)F` (stereo not drawn) [I-291]: the LogP was 2.27^[a].

For `CCC(C)C(O)(Cn1cncc1C#N)c1ccc(Cl)cc1` (single isomer, unassigned) [I-325], the LogP is 2.73^[a].

For `CC(O)(Cn1cncc1C#N)c1ccc(Oc2ccc(C(F)(F)F)cc2)cc1C(F)(F)F` (stereo not drawn) [I-206], the LogP is 3.64^[a].

As to `CC(O)(Cn1cncc1Br)c1ccc(Oc2ccc(Br)cc2)cc1C(F)(F)F` (stereo not drawn) [I-192], the LogP was 3.03^[a].

Take `N#Cc1cncn1CC(O)c1ccc(Oc2ccc(Cl)cn2)cc1C(F)(F)F` (stereo not drawn) [I-66]: the LogP is 2.75^[a].

Turning to `CC(O)(Cn1cncc1F)c1ccc(Oc2ccc(Br)cc2)nc1C(F)(F)F` (stereo not drawn) [I-213], the LogP is 2.35^[a].

For the molecule `N#Cc1cncn1CC(O)c1ccc(Oc2ccc(C(F)F)cc2)nc1C(F)(F)F` (stereo not drawn) [I-145], the LogP was 2.77^[a].

As to `N#Cc1cncn1CC(O)(c1ccc(F)cc1F)C1(F)CC1` (stereo not drawn) [I-352], the LogP is 2.08^[a].

`C[Si](C)(C)CC(O)(Cn1cncc1C#N)c1ccccc1Cl` (stereo not drawn) [I-306]: the LogP was 3.39^[a].

With `N#Cc1cncn1CC(O)(c1cc(F)c(F)c(Br)c1)C1(F)CC1` (stereo not drawn) [I-471], the LogP is 2.58^[a].

For the molecule `N#Cc1cncn1CC(O)(c1c(F)ccc(F)c1F)C1(F)CC1` (stereo not drawn) [I-590], the LogP is 2.07^[a].

On to `N#Cc1cncn1CC(O)(c1ccc(Cl)cc1Cl)C1(Cl)CC1` (stereo not drawn) [I-235], for which the LogP is 2.67^[a].

Take `CC(C)CC(O)(Cn1cncc1C#N)c1ccccc1C(F)(F)F` (stereo not drawn) [I-343]: the LogP is 2.88^[a].

With `CCCC(C)C#CC(O)(Cn1cncc1C#N)C1(Cl)CC1` (stereo not drawn) [I-658], the LogP was 2.82^[a].

As to `CC(C)(C)c1ccc(C#CC(O)(Cn2cncc2C#N)C2(Cl)CC2)cc1` (stereo not drawn) [I-317], the LogP is 3.73^[a].

For the molecule `CCCC(C)C=CC(O)(Cn1cncc1C#N)C1(Cl)CC1` (stereo not drawn) [I-689], the LogP is 3.41^[a].

Take `CC(O)(Cn1cncc1C#N)c1ccc(Oc2ccc(I)cc2)cc1Br` (stereo not drawn) [I-217]: the LogP was 3.81^[a].

Take `OC(Cn1cncc1F)(c1ccc(Cl)cc1Br)C1(F)CC1` (stereo not drawn) [I-431]: the LogP was 1.73^[a].

`CC(C)(C)C(O)(Cn1cncc1C#N)c1ccc(F)cc1F` (stereo not drawn) [I-385]: the LogP is 2.71^[a].

In the case of `N#Cc1cncn1CC(O)(c1c(F)cc(F)cc1F)C1(F)CC1` (stereo not drawn) [I-518], the LogP was 2.07^[a].

With `CCCCC(O)(Cn1cncc1C#N)c1ccc(C(F)(F)F)cc1` (stereo not drawn) [I-277], the LogP is 2.94^[a].

With `OC(Cn1cncc1Cl)c1ccc(Oc2ccc(Cl)cc2)cc1C(F)(F)F` (stereo not drawn) [I-21], the LogP was 2.86^[a].

As for `CCCCCCC(O)(Cn1cncc1C#N)C1(F)CC1` (stereo not drawn) [I-399], the LogP is 3.00^[a].

As to `N#Cc1cncn1CC(O)(CC1CC1)c1cc(F)cc(Br)c1` (stereo not drawn) [I-532], the LogP was 2.65^[a].

On to `CC(O)(Cn1cncc1F)c1cnc(Oc2ccc(Br)cc2)cc1C(F)(F)F` (single isomer, unassigned) [I-220], for which the LogP was 2.37^[a].

In the case of `CCC(O)(Cn1cncc1C#N)c1ccc(Cl)cc1Cl` (stereo not drawn) [I-301], the LogP is 2.66^[a].

In the case of `CCc1cc(Cl)ccc1C(O)(Cn1cncc1C#N)C1(Cl)CC1` (stereo not drawn) [I-335], the LogP is 3.00^[a].

With `N#Cc1cncn1CC(O)(c1ccc(F)c(Br)c1F)C1(Cl)CC1` (stereo not drawn) [I-616], the LogP was 2.54^[a].

Regarding `CC(O)(Cn1cncc1C#N)c1ccc(Oc2ccc(Br)cc2)cc1F` (stereo not drawn) [I-191], the LogP was 3.29^[a].

`OC(Cn1cncc1Br)c1ccc(Oc2ccc(Br)cc2)cc1Br` (stereo not drawn) [I-44]: the LogP was 2.78^[a].

Regarding `CC(C)CC(O)(Cn1cncc1C#N)c1ccc(Cl)cc1` (stereo not drawn) [I-285], the LogP was 2.70^[a].

For `CC(O)(Cn1cncc1F)c1ccc(Oc2ccc(Cl)cc2)nc1C(F)(F)F` (stereo not drawn) [I-257], the LogP is 2.32^[a].

On to `COc1ccc(Oc2ccc(C(C)(O)Cn3cncc3Cl)c(Cl)n2)c(Cl)c1` (stereo not drawn) [I-163], for which the LogP is 2.30^[a].

Take `N#Cc1cncn1CC(O)(c1cc(Cl)c(F)cc1Br)C1(F)CC1` (stereo not drawn) [I-687]: the LogP is 2.61^[a].

For `OC(Cn1cncc1Br)c1ccc(Oc2ccccc2)cc1Cl` (stereo not drawn) [I-27], the LogP is 2.21^[a].

As to `N#Cc1cncn1CC(O)(c1cc(F)cc(Br)c1)C1(F)CC1` (stereo not drawn) [I-537], the LogP is 2.51^[a].

Regarding `N#Cc1cncn1CC(O)c1ccc(Oc2ccc(Cl)nc2)nc1C(F)(F)F` (stereo not drawn) [I-151], the LogP was 2.37^[a].

As for `Cc1ccc(C(O)(Cn2cncc2C#N)C2(Cl)CC2)cc1C1(C(F)(F)F)CC1` (stereo not drawn) [I-212], the LogP is 3.27^[a].

Take `N#Cc1cncn1CC(O)(CCCC1CCCCC1)C1CCC1` (stereo not drawn) [I-665]: the LogP is 4.16^[a].

Regarding `N#Cc1cncn1CC(O)c1ccc(Oc2ccc(Cl)cc2)cc1Cl` (stereo not drawn) [I-22], the LogP is 3.19^[a].

As for `N#Cc1cncn1CC(O)(CC1CC1)c1ccc(C(F)(F)F)cc1Br` (stereo not drawn) [I-436], the LogP was 2.90^[a].

As for `N#Cc1cncn1CC(O)(CC1CC1)c1cc(F)ccc1F` (stereo not drawn) [I-515], the LogP was 2.18^[a].

For `NC(=S)c1cncn1CC(O)(c1ccc(Cl)cc1Br)C1(F)CC1` (stereo not drawn) [I-505], the LogP was 1.92^[a].

In the case of `N#Cc1cncn1CC(O)(c1ccc(F)cc1C(F)(F)F)C1CC1` (stereo not drawn) [I-467], the LogP was 2.47^[a].

For `N#Cc1cncn1CC(O)(c1cc(F)c(Br)cc1Cl)C1(F)CC1` (stereo not drawn) [I-682], the LogP is 2.63^[a].

Take `N#Cc1cncn1CC(O)c1ccc(Oc2ccc(Cl)nc2)cc1Cl` (stereo not drawn) [I-43]: the LogP is 2.37^[a].

Turning to `CCCCCCC(O)(CC1CC1)Cn1cncc1C#N` (stereo not drawn) [I-427], the LogP was 3.35^[a].

Turning to `CC(O)(Cn1cncc1C#N)c1ccc(Oc2ccc(Br)nc2)nc1C(F)(F)F` (stereo not drawn) [I-364], the LogP is 2.44^[a].

Consider `CCCC(C)C(O)(Cn1cncc1C#N)c1ccc(Cl)cc1` (single isomer, unassigned) [I-327], for which the LogP is 3.08^[a].

On to `C[Si](C)(C)CC(O)(Cn1cncc1C#N)c1ccc(OC(F)(F)F)cc1` (stereo not drawn) [I-270], for which the LogP was 3.70^[a].

With `N#Cc1cncn1CC(O)(c1cc(F)cc(Cl)c1F)C1(Cl)CC1` (stereo not drawn) [I-610], the LogP was 2.49^[a].

As for `N#Cc1cncn1CC(O)(c1cc(Br)ccc1F)C1(F)CC1` (stereo not drawn) [I-631], the LogP was 2.31^[a].

On to `N#Cc1cncn1CC(O)(CC1CCCCC1)c1ccc(F)cc1F` (stereo not drawn) [I-466], for which the LogP is 3.44^[a].

Take `CCOC(Cn1cncc1F)c1ccc(Oc2ccc(Cl)cc2)cc1C(F)(F)F` (stereo not drawn) [I-107]: the LogP is 3.54^[a].

With `CC(O)(Cn1cncc1F)c1cnc(Oc2ccc(C(F)(F)F)cc2)cc1Cl` (stereo not drawn) [I-244], the LogP was 2.13^[a].

On to `CC(O)(Cn1cncc1C#N)c1cnc(Oc2ccc(C(F)(F)F)cc2)cc1C(F)(F)F` (stereo not drawn) [I-218], for which the LogP was 3.23^[a].

For the molecule `CCCCC(O)(Cn1cncc1C#N)c1ccccc1F` (stereo not drawn) [I-287], the LogP was 2.51^[a].

Turning to `N#Cc1cncn1CC(O)(c1ccccc1C(F)(F)F)C1(F)CC1` (stereo not drawn) [I-348], the LogP was 2.28^[a].

For the molecule `OC(Cn1cncc1Cl)c1ccc(Oc2ccc(OC(F)(F)F)cc2)c(Br)c1` (stereo not drawn) [I-05], the LogP is 2.82^[a].

As for `N#Cc1cncn1CC(O)(c1cc(F)cc(F)c1F)C1(Cl)CC1` (stereo not drawn) [I-620], the LogP was 2.29^[a].

With `OC(Cn1cncc1F)c1ccc(Oc2ccc(C(F)F)cc2)nc1Cl` (stereo not drawn) [I-102], the LogP is 1.80^[a].
